{"source": "patent US20260216144A1", "about": "“TARGETING MB2 OF THE MYC ONCOGENE AND ITS INTERACTION WITH TRRAP IN CANCER” (priority 2019, published 2026)"}
{"molecular_target": "MYC:TRRAP interaction (Homo sapiens, UniProt P01106+Q9Y4A5)", "sequence (P01106 16-205)": "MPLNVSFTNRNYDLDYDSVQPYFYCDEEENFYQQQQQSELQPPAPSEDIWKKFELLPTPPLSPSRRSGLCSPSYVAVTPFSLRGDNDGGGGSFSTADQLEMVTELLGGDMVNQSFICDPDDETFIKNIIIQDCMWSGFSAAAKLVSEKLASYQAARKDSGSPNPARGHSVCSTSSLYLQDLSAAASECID", "sequence (Q9Y4A5 2051-2301)": "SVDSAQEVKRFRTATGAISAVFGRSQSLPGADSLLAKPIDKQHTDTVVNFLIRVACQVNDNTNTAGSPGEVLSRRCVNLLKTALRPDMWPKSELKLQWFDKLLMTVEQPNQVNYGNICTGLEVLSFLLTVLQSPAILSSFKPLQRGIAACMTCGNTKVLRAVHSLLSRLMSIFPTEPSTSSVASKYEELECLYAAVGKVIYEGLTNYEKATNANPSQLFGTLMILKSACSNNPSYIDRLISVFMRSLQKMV", "experiment": "MYC:TRRAP in-cell luminescence complementation assay (NanoBiT; SmB-MYC 1-190 and TRRAP 2033-2283-LgB in HeLa cells)", "assay_type": "cell-based", "settings": "Table 1; 46 primary hits at 10 uM; HeLa cells; triplicate measurements", "protocol": "(§1) HeLa cells plated on Greiner 96-well TC-rated white plates with clear bottoms were used for the following measurements. Reverse transfections were carried out using LipoD293™ before cells were plated. A bluescript KS' plasmid (Addgene) was used as carrier DNA for transfections, and a pcDNA3.1 EGFP plasmid (ThermoFisher) was used as a fluorescence reporter. White light-reflecting film (USA Scientific) was used to cover the bottom of the plates for luminescence measurements. Black light-absorbing film was used to cover the top of the plates for fluorescence measurements. All measurements were taken on a SpectraMax i3 instrument (Molecular Devices).\n(§2) Transfections were carried out with increasing DNA amounts (1-100 ng per well) of a CMV-driven LgB plasmid and SmB in excess or vice-versa. Background luminesce for the usable range and the amount of DNA needed for vast excess of LgB or SmB were noted. Next, complementation with vast excess either LgB or SmB was used to determine the expression of each of the indicated MYC and TRRAP constructs for a range of DNA amounts per well: 10-100 ng. An optimal ratio of DNA to equalize the expression of each MYC and TRRAP pair was calculated. Then, signal-to-noise ratios were calculated for the indicated MYC and TRRAP pairs, and the pair with the highest ratio was chosen. Finally, the chosen pair was used to determine the optimal DNA transfection mixture. It was determined to be 6.7 ng of a plasmid with a MYC construct, 60 ng of a plasmid with a TRRAP construct and 33.3 ng of the pcDNA 3.1 EGFP plasmid, for each well in a 96-well plate. Unless otherwise indicated, these were the ratios of DNA transfected for this type of assay.\n(§3) HeLa cells were transfected as above using LipoD293™ with a mixture of SmB-MYC 1-190, TRRAP 2033-2283-LgB, and EGFP in CMV-driven plasmids at the same optimized ratio described above. Two days post-transfection, the media in each well was replaced with fresh media containing each compound from the NCI's sets at 25 μM. Cells were incubated for 2 h with each compound, and luminescence and fluorescence measurements were recorded for each well. Changes in luminescence were normalized to fluorescence. The following pre-plated compound sets were obtained from the NCI/DTP chemical repository and used for this screen:\n(§4) These chemical sets were used to discover novel small-molecule inhibitors of the MYC:TRRAP complex. SmB-MYC 1-190, TRRAP 2033-2283-LgB, and EGFP were transfected into HeLa cells. Two days post-transfection, compounds were added to the media at 25 μM and cells were incubated for 2h. Luminescence and fluorescence were recorded for each well containing one of the compounds. Changes in luminescence measurements were normalized to fluorescence measurements.\n(§5) Afterwards, only molecules that reduced luminescence levels to <50% RLU were considered. This set of 46 compounds were incubated at 10 μM with vector-expressing cells. Luminescence complementation was measured and repeated in triplicate measurements. In addition, HeLa cells expressing LgB and SmB alone were incubated with the same compounds to rule out potentially artificial results due to inhibition of luciferase or its complementation. Molecules that induces any significant reduction in luminescence (<0.6) during this control assay were not considered further. Of 2947 molecules, 17 were chosen for further testing and ordered from the NCI/DTP Open Chemical Repository. FIG. 16 describes these chosen compounds.\n(§6) Using the luminescence assay above as a readout for the MYC:TRRAP interaction, we used a robotic liquid handler to evaluate 2987 additional compounds (25 μM). All primary hits were counter-screened for any activity against the luciferase enzyme itself and for any effects on the expression of the fusion proteins. We set a threshold of 50% inhibition to consider compounds further. Only 17 out of 2987 passed all these criteria (0.6%). […]", "units": {"% Inhibition 10 uM": "%"}}
{"smiles": "COc1cc(/N=N/c2cccc(S(N)(=O)=O)c2)c2ccccc2c1N", "note": "[Compound 41, 3-[(4-amino-3-methoxy-naphthalen-1-yl)diazenyl] benzene-sulfonamide]", "% Inhibition 10 uM": 78.97}
{"smiles": "COC(=O)c1cc2c(n1S(=O)(=O)c1ccc(C)cc1)C(=O)C(=O)c1[nH]cc(C(=O)OCc3ccccc3)c1-2", "note": "[Compound 21, 8-O-benzyl 2-O-methyl 3-(4-methylphenyl) sulfonyl-4,5-dioxo-6H-pyrrolo[3,2-e]indole-2,8-dicarboxylate]", "% Inhibition 10 uM": 39.88}
{"smiles": "Cc1cc2c(C(C)C)c(O)c(O)c(C=O)c2c(O)c1-c1c(C)cc2c(C(C)C)c(O)c(O)c(C=O)c2c1O", "note": "[Compound 31, 7-(8-formyl-1,6,7-trihydroxy-3-methyl-5-propan-2-ylnaphthalen-2-yl)-2,3,8-trihydroxy-6-methyl-4-propan-2-ylnaphthalene-1-carbaldehyde]", "% Inhibition 10 uM": 68.27}
{"smiles": "CN(C)c1ccc(/C=C/C(=O)c2cc(Cl)ccc2O)cc1", "note": "[Compound 35, (E)-1-(5-chloro-2-hydroxyphenyl)-3-[4-(dimethylamino)phenyl]prop-2-en-1-one]", "% Inhibition 10 uM": 50.79}
{"smiles": "Cc1ccc(NC(=O)c2cc3ccccc3c(/N=N/c3ccccc3O)c2O)c(C)c1", "note": "[Compound 5, N-(2,4-dimethylphenyl)-3-hydroxy-4-[(2-hydroxyphenyl)diazenyl] naphthalene-2-carboxamide]", "% Inhibition 10 uM": 37.24}
{"smiles": "O=C1c2ccccc2C(=O)c2sc(Nc3ccc(Cl)cc3)nc21", "note": "[Compound 28, 2-(4-chloroanilino)benzo [f][1,3] benzothiazole-4,9-dione]", "% Inhibition 10 uM": 66.32}
{"smiles": "CC(=O)OC(C)C1C2=C(C(=O)C[C@]1(C)O)C(=O)c1c(ccc(-c3ccc4c(c3O)C(=O)C3=C(C4=O)C(C(C)OC(C)=O)[C@@](C)(O)CC3=O)c1O)C2=O", "note": "(stereo partly drawn) [Compound 17, 1-[(2S)-6-[(6S)-5-(1-acetyloxyethyl)-1,6-dihydroxy-6-methyl-8,9,10-trioxo-5,7-dihydroanthracen-2-yl]-2,5-dihydroxy-2-methyl-4,9,10-trioxo-1,3-dihydroanthracen-1-yl]ethyl acetate]", "% Inhibition 10 uM": 46.81}
{"smiles": "Nc1ccc(N=Nc2ccccc2Cl)c(N)n1", "note": "[Compound 1, 3-[(2-chlorophenyl)diazenyl] pyridine-2,6-diamine]", "% Inhibition 10 uM": 14.38}
{"smiles": "N=c1ccc(/N=N/c2ccc(O)cc2)c(N)[nH]1", "note": "[Compound 4, 4-[(2,6-diaminopyridin-3-yl)diazenyl]phenol]", "% Inhibition 10 uM": 30.35}
{"smiles": "CC1=C(CCC(=O)O)c2cc3nc(cc4[nH]c(cc4C)cc4[nH]c(cc1n2)cc4C)C(C)=C3CCC(=O)O", "note": "[Compound 27, 3-[18-(2-carboxyethyl)-3,8,13,17-tetramethyl-22,23-dihydroporphyrin-2-yl]propanoic acid]", "% Inhibition 10 uM": 75.42}
{"smiles": "CC1Oc2cc3c(-c4c(O)cc(O)c5c(O)c6c(cc45)OC(C)C(C)C6=O)c(O)cc(O)c3c(O)c2C(=O)C1C", "note": "(centres unmarked) [Compound 38]", "% Inhibition 10 uM": 76.03}
{"smiles": "Cc1ccc2c(c1)C=C/C(=C\\C=C1/C=CC(=O)c3ncccc31)N2C", "note": "[Compound 37, 5-[2-(1,6-dimethylquinolin-1-ium-2-yl)ethenyl]quinolin-8-ol]", "% Inhibition 10 uM": 84.83}
{"smiles": "FC(F)(F)c1cccc(-c2nc3nc(Cl)c(Cl)[nH]c-3n2)c1", "note": "[Compound 32, 5,6-dichloro-2-[3-(trifluoromethyl)phenyl]-1H-imidazo[4,5-b]pyrazine]", "% Inhibition 10 uM": 80.85}
{"molecular_target": "MYC:TRRAP interaction (Homo sapiens, UniProt P01106+Q9Y4A5)", "experiment": "MYC:TRRAP in-cell luminescence complementation assay (NanoBiT; SmB-MYC 1-190 and TRRAP 2033-2283-LgB in HeLa cells)", "assay_type": "cell-based", "settings": "Table 1; 46 primary hits at 10 uM; HeLa cells; triplicate measurements; 10 µM", "protocol": "as §1, §2, §3, §4, §5, §6", "units": {"% Inhibition 10 uM": "%"}}
{"smiles": "COC(=O)c1nc(-c2ccc3c(n2)C(=O)C(N)=C(OC)C3=O)c(N)c(-c2ccc(OC)c(OC)c2O)c1C", "note": "[Compound 23, methyl 5-amino-6-(7-amino-6-methoxy-5,8-dioxoquinolin-2-yl)-4-(2-hydroxy-3,4-dimethoxyphenyl)-3-methylpyridine-2-carboxylate]", "% Inhibition 10 uM": 50.17}
{"molecular_target": "MYC:TRRAP interaction (Homo sapiens, UniProt P01106+Q9Y4A5)", "experiment": "MYC:TRRAP in-cell luminescence complementation assay (NanoBiT; SmB-MYC 1-190 and TRRAP 2033-2283-LgB in HeLa cells)", "assay_type": "cell-based", "settings": "Table 1; 46 primary hits at 10 uM; HeLa cells; triplicate measurements; listed as 29, 10 µM", "protocol": "as §1, §2, §3, §4, §5, §6", "units": {"% Inhibition 10 uM": "%"}}
{"smiles": "COC(=O)c1nc(-c2ccc3c(n2)C(=O)C(N)=C(OC)C3=O)c(N)c(-c2ccc(OC)c(OC)c2O)c1C", "note": "[Compound 23, methyl 5-amino-6-(7-amino-6-methoxy-5,8-dioxoquinolin-2-yl)-4-(2-hydroxy-3,4-dimethoxyphenyl)-3-methylpyridine-2-carboxylate]", "% Inhibition 10 uM": 60.1}
{"molecular_target": "MYC:TRRAP interaction (Homo sapiens, UniProt P01106+Q9Y4A5)", "experiment": "MYC:TRRAP in-cell luminescence complementation assay (NanoBiT; SmB-MYC 1-190 and TRRAP 2033-2283-LgB in HeLa cells)", "assay_type": "cell-based", "settings": "Table 2; compounds with >80% similarity to compound 10 (NSC657456); 10 uM", "protocol": "as §1, §2, §3, §4, §5, §6", "units": {"% Inhibition 10 uM": "%"}}
{"smiles": "CCCNC(=S)N=Nc1c(O)[nH]c2ccccc12", "note": "[Compound 1032, 1-[(2-hydroxy-1H-indol-3-yl)imino]-3-propylthiourea]", "% Inhibition 10 uM": 88.62}
{"smiles": "N=C(S)/N=N/c1c(O)[nH]c2cccc(C(F)(F)F)c12", "note": "[Compound 1015, [2-hydroxy-4-(trifluoro-methyl)-1H-indol-3-yl]iminothiourea]", "% Inhibition 10 uM": 82.44}
{"smiles": "Oc1[nH]c2ccccc2c1/N=N/c1ccccc1", "note": "[Compound 1012, 3-phenyldiazenyl-1H-indol-2-ol]", "% Inhibition 10 uM": 66.53}
{"smiles": "CCOC(=O)Cc1csc(/N=N/c2c(O)[nH]c3ccccc23)n1", "note": "[Compound 1026, ethyl 2-[2-[(2-hydroxy-1H-indol-3-yl)diazenyl]-1,3-thiazol-4-yl] acetate]", "% Inhibition 10 uM": 59.51}
{"smiles": "Cc1ccccc1/N=C(S)/N=N/c1c(O)[nH]c2ccccc12", "note": "[Compound 1034, 1-[(2-hydroxy-1H-indol-3-yl)imino]-3-(2-methylphenyl) thiourea]", "% Inhibition 10 uM": 111.9}
{"smiles": "O=C(/N=N/c1c(O)[nH]c2ccccc12)Nc1ccccc1", "note": "[Compound 1013, 1-[(2-hydroxy-1H-indol-3-yl)imino]-3-phenylurea]", "% Inhibition 10 uM": 83.25}
{"smiles": "CCOC(=O)/N=N/c1c(O)[nH]c2ccccc12", "note": "[Compound 1014, ethyl N-[(2-hydroxy-1H-indol-3-yl)imino] carbamate]", "% Inhibition 10 uM": 107.3}
{"smiles": "O=[N+]([O-])c1ccc(/N=N/c2c(O)[nH]c3ccccc23)cc1", "note": "[Compound 109, 3-[(4-nitrophenyl)diazenyl]-1H-indol-2-ol]", "% Inhibition 10 uM": 54.48}
{"smiles": "O=C(Cc1ccccc1)/N=N/c1c(O)[nH]c2ccccc12", "note": "[Compound 1038, N-((2-hydroxy-1H-indol-3-yl)imino]-2-phenylacetamide]", "% Inhibition 10 uM": 86.67}
{"smiles": "Cc1ccc(/N=C(S)/N=N/c2c(O)[nH]c3ccccc23)cc1", "note": "[Compound 1036]", "% Inhibition 10 uM": 86.98}
{"smiles": "Cc1ccccc1NC(=O)Cc1csc(/N=N/c2c(O)[nH]c3ccccc23)n1", "note": "[Compound 1029]", "% Inhibition 10 uM": 98.07}
{"smiles": "Oc1[nH]c2ccccc2c1/N=N/C1=NCCN1", "note": "[Compound 1020, 3-(4,5-dihydro-1H-imidazol-2-yldiazenyl)-1H-indol-2-ol]", "% Inhibition 10 uM": 91.72}
{"smiles": "O=C(Cc1csc(/N=N/c2c(O)[nH]c3ccccc23)n1)Nc1ccccc1", "note": "[Compound 1028, 2-[2-[(2-hydroxy-1H-indol-3-yl)diazenyl]-1,3-thiazol-4-y]-N-phenylacetamide]", "% Inhibition 10 uM": 97.46}
{"smiles": "Cc1cccc(/N=C(S)/N=N/c2c(O)[nH]c3ccccc23)c1", "note": "[Compound 1035, 1-[(2-hydroxy-1H-indol-3-yl)imino]-3-(3-methylphenyl) thiourea]", "% Inhibition 10 uM": 82.12}
{"smiles": "Cc1ccccc1/N=N/c1c(O)[nH]c2ccccc12", "note": "[Compound 1010, 3-[(2-methylphenyl)diazenyl]-1H-indol-2-ol]", "% Inhibition 10 uM": 94.76}
{"smiles": "N#CC(=C/N=C(S)/N=N/c1c(O)[nH]c2ccccc12)c1nc2ccccc2s1", "note": "(stereo in doubt) [Compound 1030, 1-[(E)-2-(1,3-benzothiazol-2-yl)-2-cyanoethenyl]-3-[(2-hydroxy-1H-indol-3-yl)imino] thiourea]", "% Inhibition 10 uM": 48.26}
{"smiles": "N=C(N)/N=N/c1c(O)[nH]c2ccccc12", "note": "[Compound 104, 1-[(2-hydroxy-1H-indol-3-yl)imino] guanidine]", "% Inhibition 10 uM": 123.9}
